This note sets out measurements from patent US10729694B2 (AI Therapeutics, Inc., priority 2015, dated 2020).

The subject of assay [1] is representative cancer cell line. The assay can be described thus: Vacuolization and disruption of intracellular trafficking in cells. Particulars: live cells treated with 500 nM, 24 h.
The test system of another assay is 456 kinases. It is filed as binding.

Turning to `Cc1cccc(/C=N/Nc2cc(N3CCOCC3)nc(OCCc3ccccn3)n2)c1` [apilimod], the vacuolization entry in assay [1] is given as “induces vacuolization”. In addition, the “binding to panel of 456 kinases” value in the assay on 456 kinases is listed as “did not bind to any of the 456 kinases tested”.
